Laboratory results reported in article PMC3229304 (2011).

Molecular target: KDM5B/JARID1B/PLU-1 (Homo sapiens, UniProt Q9UGL1)
Test: in vitro histone demethylase inhibition, Ki
Assay type: biochemical

KDM5B/JARID1B/PLU-1, sequence (Q9UGL1 whole entry): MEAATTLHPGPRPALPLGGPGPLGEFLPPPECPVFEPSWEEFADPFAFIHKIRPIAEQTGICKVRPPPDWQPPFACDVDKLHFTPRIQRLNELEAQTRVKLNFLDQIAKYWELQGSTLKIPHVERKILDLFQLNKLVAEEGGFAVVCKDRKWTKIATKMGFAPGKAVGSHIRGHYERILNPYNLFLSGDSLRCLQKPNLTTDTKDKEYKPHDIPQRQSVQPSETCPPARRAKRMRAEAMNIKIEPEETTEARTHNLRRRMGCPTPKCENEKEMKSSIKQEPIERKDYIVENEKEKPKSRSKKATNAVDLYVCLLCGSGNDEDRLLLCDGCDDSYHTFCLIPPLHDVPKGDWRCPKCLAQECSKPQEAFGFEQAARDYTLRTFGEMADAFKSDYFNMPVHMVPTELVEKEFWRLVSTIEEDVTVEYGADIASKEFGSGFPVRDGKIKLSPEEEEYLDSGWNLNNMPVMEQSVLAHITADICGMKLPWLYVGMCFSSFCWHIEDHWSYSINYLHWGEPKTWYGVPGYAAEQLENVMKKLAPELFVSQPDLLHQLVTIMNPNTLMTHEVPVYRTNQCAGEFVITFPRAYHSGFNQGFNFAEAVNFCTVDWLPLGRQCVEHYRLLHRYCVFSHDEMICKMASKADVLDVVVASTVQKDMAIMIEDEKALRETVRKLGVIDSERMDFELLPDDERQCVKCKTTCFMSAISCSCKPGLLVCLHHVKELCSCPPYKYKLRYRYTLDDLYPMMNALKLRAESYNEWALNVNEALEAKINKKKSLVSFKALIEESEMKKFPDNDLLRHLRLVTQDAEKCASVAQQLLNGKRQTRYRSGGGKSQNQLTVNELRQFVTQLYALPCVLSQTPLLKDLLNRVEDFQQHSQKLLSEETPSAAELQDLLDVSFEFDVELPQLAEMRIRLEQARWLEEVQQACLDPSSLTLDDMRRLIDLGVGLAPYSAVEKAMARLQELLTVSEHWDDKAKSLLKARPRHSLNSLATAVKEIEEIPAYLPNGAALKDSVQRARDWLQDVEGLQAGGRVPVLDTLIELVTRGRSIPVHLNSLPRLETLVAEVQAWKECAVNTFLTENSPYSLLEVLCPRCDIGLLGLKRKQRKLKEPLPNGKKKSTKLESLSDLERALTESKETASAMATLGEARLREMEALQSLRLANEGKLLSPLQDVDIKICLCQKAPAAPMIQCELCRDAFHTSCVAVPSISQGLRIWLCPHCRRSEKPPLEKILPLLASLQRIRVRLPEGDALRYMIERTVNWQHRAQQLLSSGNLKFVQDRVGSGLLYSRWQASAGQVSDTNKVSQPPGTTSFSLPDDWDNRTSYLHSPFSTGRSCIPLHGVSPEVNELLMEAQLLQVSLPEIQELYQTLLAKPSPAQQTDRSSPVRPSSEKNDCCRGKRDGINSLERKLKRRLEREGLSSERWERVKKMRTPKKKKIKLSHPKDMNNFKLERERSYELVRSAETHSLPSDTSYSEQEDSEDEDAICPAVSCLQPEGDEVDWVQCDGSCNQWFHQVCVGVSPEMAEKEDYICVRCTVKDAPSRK

Which Ki does the source give for `O=C(O)CNC(=O)C(=O)O` [N-oxalylglycine] here?
The Ki was 653 ± 128 µM.
